From patent US20230346773A1, “USE OF PCSK9 INHIBITOR IN PREPARATION OF PRODUCT FOR TREATING MULTIPLE DISEASES” (priority 2020, published 2023)
Marks after values point to notes of the source that are not given here.

Assays:
[1] = test system: hair follicles / hair growth in depilated C57BL/6 mice; assay: Hair growth in C57BL/6 mice after rosin/paraffin depilation; assay type: in vivo
Procedure: SPF grade C57BL/6 mice were selected and numbered according to their weight. They were randomly divided into compound group 1 (skin applied with 2% R-IMPP solution), compound group 2 (skin applied with 2% PF 06446846 solution), and compound group 3 (skin applied with 2% SBC-115076 solution), compound group 4 (skin applied with 2% SBC-110736 solution), monoclonal antibody group 1 (PCSK9subcutaneous injection monoclonal antibody ab81041, 5 mg/kg·d), monoclonal antibody group 2 (Subcutaneous injection of Evolocumab, 5 mg/kg·d), monoclonal antibody group 3 (subcutaneous injection of Alirocumab, 5 mg/kg·d), PCSK9 RNA interference group-1 (skin applied with 2% PCSK9 small interfering RNA-1 solution), PCSK9 RNA interference Group-2 (skin applied with 2% PCSK9 small interfering RNA-2 solution), PCSK9 RNA interference group-3 (skin applied with 2% PCSK9 small interfering RNA-3 solution), polypeptide group (subcutaneous injection of Abcam company ab32727, 3 mg/kg·d), positive control group (skin applied with 2% minoxidil solution), negative control group (skin applied with 60% ethanol), and model control group (skin applied with 60% ethanol), 10 mice in each group, half male and half female. After the mice were anesthetized with ether, they were coated on the back with a mixture of rosin and paraffin (1:1) after hot melting, and then peeled off after it solidified and hardened. The back of the mouse was cleaned to be hairless and without injuries. The depilation area was about 3 cm×4 cm. From the 2nd day after depilation, the corresponding drugs were applied to the hair removal area, twice a day, 0.5 mL per animal each time, and subcutaneously injected once a week.
From the second day after application, observe the daily color change of the skin on the back of the mice to determine the growth state of the hair follicles and visually observe the hair growth in the depilation area, and score the new hair growth in the depilation area once a day. Five mice in each group were reserved for 40 days of visual observation, and the growth of back hair was recorded.
On the 17th day, five mice in each group were sacrificed by cervical dislocation. The samples were taken from the same part of the back parallel to the spine, fixed with 10% formaldehyde, dehydrated, embedded in paraffin, sectioned, stained with HE, and sealed with neutral gum. Then the histology of hair follicles was observed under light microscope, and morphological staging of hair follicles was performed. According to the international hair cycle scoring method, the hair follicles were scored as follows: 100 points for growth stage VI, 200 points for early regression, 300 points for middle regression, and 400 points for late regression. 50 hair follicles were randomly selected from each mouse, the cycle of the hair follicles in each group was determined, and the average hair cycle score and the percentage of hair follicles in the growth phase VI, early regression, middle regression, and late regression were calculated.

[2] = test system: androgenetic alopecia (SA) rat model; assay: Androgenetic alopecia (SA) rat model induced by testosterone propionate; assay type: in vivo, Wistar rats
Procedure: SPF grade Wistar rats were selected and randomly divided into compound group 1 (skin applied with 5% R-IMPP solution), compound group 2 (skin applied with 5% PF 06446846 solution), and compound group 3 (skin applied with 5% SBC-115076 solution), compound group 4 (skin applied with 5% SBC-110736 solution), monoclonal antibody group 1 (subcutaneous injection of PCSK9 monoclonal antibody ab84041, 5 mg/kg·d), monoclonal antibody group 2 (subcutaneous injection of Evolocumab, 5 mg/kg·d), monoclonal antibody group 3 (subcutaneous injection of Alirocumab, 5 mg/kg·d), PCSK9 RNAi inhibitor group-1 (skin applied with 5% PCSK9 small interfering RNA-1 solution), PCSK9 RNAi inhibitor group-2 (skin applied with 5% PCSK9 small interfering RNA-2 solution), PCSK9 RNAi inhibitor group-3 (skin applied with 5% PCSK9 small interfering RNA-3 solution), and polypeptide group (subcutaneous injection of Abcam company ab32727, 3 mg/kg·d), positive control group (skin smeared with 5% minoxidil tincture), negative control group (smeared with 75% ethanol), model control group (smeared with 75% ethanol), 10 rats in each group, half male and half female.
Before the experiment, each rat selected an area of 4 cm×5 cm on the back to remove the hair as the observation area. Except for the negative control group, the rats were subcutaneously injected with testosterone propionate injection [[…]] at the back of the neck, once a day for 60 consecutive days to establish the SA model. […] At the same time, the rats in the corresponding drug group were smeared or subcutaneously injected on the skin of the observation area of the rats in the drug group, smeared 1 ml/(per time), twice a day, with an interval of 8 hours, and administered by subcutaneous injection, once a day. The negative control group and the model control group were smeared with excipient (75% ethanol solution), 1 mL one rat per time, twice a day, for 60 consecutive days.
10 hairs were extracted from the observation area on the back of each rat every 15 days after administration, and the hair length was measured with a vernier caliper. After 60 days of administration, the skin of the experimental observation area was taken for routine tissue dehydration, paraffin embedding, HE staining, and light microscopy to observe the histopathological changes of the rat skin hair follicles and sebaceous glands. Semi-quantitative analysis was carried out in each group. The grading standards are as follows: normal skin dermal tissue cells, subcutaneous hair follicles, and sebaceous glands were marked as “one”; no hyperplasia in the dermis, limited lesions of hair follicles and sebaceous glands, and no subcutaneous inflammation, marked as “±”; no obvious hyperplasia found in the dermis, obviously cystic follicles, no obvious hyperplasia found in the sebaceous glands, and no inflammation is recorded as “+”; segmental hyperplasia of skin and dermis was not obvious, a small number of hair follicles had cystic degeneration, and sebaceous glands had mild hyperplasia and hypertrophy. No obvious inflammation under the skin was recorded as “++”; the skin and dermis tissue cells had segmental hyperplasia of different degrees, some follicles degenerated, the size of the hair follicles was uneven, and there were no cells in the periphery. There was hyperplasia of sebaceous glands, and there were few nuclei in the hyperplasia glands. Individual rats had mild inflammatory hyperplasia under the skin, which was marked as “+++”.

[3] = hair removal area on the back of mice, after hair removal

## Nc1cc(N2CCCCC2)nc(N)[n+]1[O-] [Positive control group, minoxidil]
[1]; 17th day after hair plucking
  percentage of hair follicles in the growth stage VI: 42%
[1]; 17th day after hair plucking, 100 points growth stage VI, 200 early, 300 middle, 400 late regression
  average hair cycle score: 185
[1]; back hair removal area of mice
  Time from hair growth to the same length as the hair in the non-experimental area: 15.77 days
  Time to grow new hair: 7.85 days
  Time to match the length of hair in the non-experimental area: 23.62 days
[1]; hair removal area on the back of mice
  Black skin duration: 12.80 days
[1]; [3]
  Skin black-turning time: 6.29* days
  Skin grayish-black-turning time: 19.09* days
[2]; 10 rats, after 60 days, few follicles with cystic degeneration, sebaceous glands mild hyperplasia and hypertrophy
  Skin hair follicles and sebaceous glands: number of rats graded ++: 2
[2]; 10 rats, after 60 days, no hyperplasia in the dermis, limited lesions of hair follicles and sebaceous glands, no subcutaneous inflammation
  Skin hair follicles and sebaceous glands: number of rats graded ±: 3
[2]; 10 rats, after 60 days, no obvious hyperplasia in dermis, obviously cystic follicles, no inflammation
  Skin hair follicles and sebaceous glands: number of rats graded +: 5
[2]; 10 rats, after 60 days, normal skin dermal tissue cells, subcutaneous hair follicles and sebaceous glands
  Skin hair follicles and sebaceous glands: number of rats graded −: 0
[2]; 10 rats, after 60 days, segmental hyperplasia, degenerated follicles, hyperplasia of sebaceous glands, mild inflammatory hyperplasia
  Skin hair follicles and sebaceous glands: number of rats graded +++: 0
[2]; rats, 15 days after administration
  15 d hair length: 7.9* mm
[2]; rats, 30 days after administration
  30 d hair length: 8.4* mm
[2]; rats, 45 days after administration
  45 d hair length: 12.8* mm
[2]; rats, 60 days after administration
  60 d hair length: 14.9* mm
